Measurements published in patent US10501562B2, “Co-initiator and co-monomer for use in preparing polymer related compositions, methods of manufacture, and methods of use” (University of Kansas, priority 2015, dated 2019).

What was measured:
[1] = Chemical stability of amine co-initiators by 1H NMR in DMSO-d6/water; type: physicochemical; conditions: 100 days storage at 25° C., 0.04 M in DMSO-d6/deionized water 80/20 wt/wt
Method: The chemical stability of three amine co-initiators (EDMAB, DMAEMA, and TUMA) was characterized by ^1H NMR spectroscopy, which were obtained on a Bruker Advance DRX 500 spectrometer (Bruker AXS Inc., Madison, Wis.) equipped with a broadband probe. Deuterated dimethyl sulfoxide (DMSO-d6)/deionized water (80/20 wt/wt) was used as the solvent. The NMR spectra of 0.04 M amine samples were monitored as a function of storage time at 25° C. The mixed (DMSO/water) solvent was used because of its ability to dissolve EDMAB and TUMA, which are hydrophobic compounds.

[2] = during 24 hours; cited from earlier work

Row | SMILES | degraded (chemical stability) [1] | degradation in the presence of water [2]
1 | CCOC(=O)c1ccc(N(C)C)cc1 [EDMAB, Ethyl-4-(dimethylamino) benzoate] | No degradation was detected | –
2 | C=C(C)C(=O)OCCN(C)C [DMAEMA, 2-(dimethylamino) ethyl methacrylate] | 37.6% | up to 82%
3 | C=C(C)C(=O)OCCNC(=O)OC(C)CN(CC(C)OC(=O)NCCOC(=O)C(=C)C)CC(C)OC(=O)NCCOC(=O)C(=C)C (stereo not shown) [TUMA, 8-(2-(((2-(methacryloyloxy)ethyl)carbamoyl)oxy)propyl)-6,10-dimethyl-4,12-dioxo-5,11-dioxa-3,8,13-triazapentadecane-1,15-diyl bis(2-methylacrylate)] | No degradation was detected | –
